# Key:
# HUVEC [1] = experiment: Detection of apoptotic HUVEC in culture (YoPro-1 staining); format: cell-based, human; conditions: peptide 300 μM; TNF 200 ng/ml; IFNγ 330 ng/ml
# Method: To test whether integrins modulate TNF-induced apoptosis, we cultured HUVEC on fibronectin (integrin-dependent adhesion) or as spheroids (integrin-independent adhesion) in the absence or presence of TNF (200 ng/ml) and of IFNγ (330 ng/ml), an enhancer of TNF cytotoxicity (Dealtry et al., Eur. J. Immunol. 17, 689-693 (1987)). […] In contrast, spheroids treated with TNF±IFNγ increased uptake of YoPro-1 (an increase suppressed by caspase inhibitors BOC, Z-VAD, IETD and DVED), DNA fragmentation, caspase-3 activation and cleavage of PARP (FIG. 2a, 2b and data not shown). To examine the effect of TNF±IFNγ on cell survival we determined the viability of untreated and treated cultures. […] Treatment with IFNγ alone was not cytotoxic (data not shown). HUVEC adhere to immobilized fibronectin via αVβ3 and α5β1 integrins (Rüegg et al., Nature Med. 4, 408-414 (1998)). To test for the individual contribution of these integrins to cell survival on fibronectin, we cultured HUVEC on plastic-immobilized mAbs (imAbs) directed against αVβ3, α1, α5 and α4 integrins.
# For morphological evaluation, spheroids were embedded in Epon (Fluka Chemie) and thick sections were stained with 1% Methylene/Azur blue. For immunostaining, frozen spheroid sections were fixed in 4% (Fluka Chemis, Buchs, Switzerland) formaldehyde. After blocking with 1% BSA, sections were sequentially incubated for 1 hour with primary mAb (20 μg/ml) and a Cyan3-labeled GaM antiserum (West Grove, Pa., USA). For the TUNEL reaction, frozen spheroids sections were fixed in 4% paraformaledhyde and processed as described (Ruegg et al., I.e.). Spherouids were countsrstained with propidium iodide for total DNA content. […] The apoptosis index was determined by calculating the ratio between the green (TUNEL staining of fragmented DNA) and red (propidium iodide staining by total DNA) pixels. Number of analyzed spheroids per condition were: C, 31; T, 21; TI, 12. […] Cultures were viewed by inverted fluorescence microscopy (Leica DM IRB, Heerbrugg, Switzerland). […]
# [2] = tested on: BN-175 syngeneic soft tissue sarcoma; experiment: Isolated limb perfusion (ILP) of BN rats bearing BN-175 soft tissue sarcoma; format: in vivo; conditions: ILP 30 min; EMD121974 500 μg (plus 100 mg/kg i.p.); TNF 50 μg; 6 days after ILP
# Method: FIG. 7. Decreased integrin ligation enhances TNF cytotoxicity in in vivo. BN rats bearing the BN-175 syngeneic soft tissue sarcoma were treated with EMD121974 (□), TNF (Δ) or EMD121974/TNF (▪) by ILP technique. (◯) sham-treated rats. Tumor growth was measured for 6 days after ILP. Results represent the mean tumor volume ±s.e.m. (n=6). Small fragments of the syngeneic soft tissue sarcoma BN-175 were implanted in the right hind limb of male BN rats, and treatment started when diameter reached 12-14 mm (Manusama et al., Oncol Rep. 6, 173-177. (1999)). The femoral artery and vein were canulated with silastic tubing and collaterals occluded with a tourniquet. The perfusion was performed for 30 min with 5 ml Heamaccel® (2.4 ml/min) in which the drugs were added as boluses (EMD121974, 500 μg, end concentration in perfusate 170 μM; TNF, 50 μg). The perfusate was oxygenated and the leg kept on 38-39° C. with a warm mattress. Rats perfused with EMD121974 also received systemic administration of the peptide 2 hours before and 3 hours after ILP (100 mg/kg i.p.). Tumor diameter was measured in two directions by caliper measurements and tumor volume (V) was calculated (V= 0.4)(A^2×B, where B represents the largest diameter and A the diameter perpendicular to B). 6 rats were treated per group. Local and systemic side effects were evaluated as described (Manusama et al., Oncol. Rep. 6, 173-177. (1999)). […]
# BN175 tumor cells = experiment: Sensitivity of BN175 tumor cells in vitro; format: cell-based, rat; conditions: unpublished observation
# α5β1 = molecular target: T1, α5β1 (Homo sapiens, UniProt P05556+P08648); experiment: Cell detachment assay, HUVEC on fibronectin; format: cell-based; conditions: graded peptide concentrations; 2 hours
# T1 construct: HUVEC adhere to immobilized fibronectin via αVβ3 and α5β1 integrins; endogenous in cells; host or cells: HUVEC (primary, passages 3 to 7)
# Method: (§1) Maxisorp II ELISA plates were coated with 1 μg/well of fibrobnectin or 0.5% gelatin overnight at 4° C. in PBS. Coated wells were rinsed and blocked with 1% BSA for 2 hours at 37° C. and rinsed before use. 2×10^4 c/well in basal medium without FCS were added and briefly sedimented by centrifugation (40×g). Cells were let adhere for 2 hours at 37° C. before peptides were added at graded concentrations. After 2 hours, wells were rinsed with warm PBS, and attached cells were fixed in 2% paraformaldehyde, stained with 0.5% crystal violet (Sigma Chemie) and quantified by O.D. reading at 620 nm (Packard Spectra Count). Results are given as O.D. values and represent the mean of duplicate wells ±s.d. of specific adhesion (= adhesion on ECM protein minus adhesion on BSA).
# HUVEC [3] = format: cell-based
# Method: To determine the effect of spheroid culture on cell viability, spheroids and fibronectin-adherent HUVEC were recovered between 6 and 72 hours after plating, serially diluted and further cultured for an additional 48 hours before relative cell number was determined. A shift-to-the left or a flattening of the dilution curve indicates decreased viability.
# To test whether integrins modulate TNF-induced apoptosis, we cultured HUVEC on fibronectin (integrin-dependent adhesion) or as spheroids (integrin-independent adhesion) in the absence or presence of TNF (200 ng/ml) and of IFNγ (330 ng/ml), an enhancer of TNF cytotoxicity (Dealtry et al., Eur. J. Immunol. 17, 689-693 (1987)). […] To examine the effect of TNF±IFNγ on cell survival we determined the viability of untreated and treated cultures. […]
# For survival, HUVEC spheroids plated at 1×10^6 cells/ml in 1% BSA-coated 24 mm wells, or adherent cells plated at 4×10^5 cells in 3 μg/ml fibronectin-coated 35 mm wells of non-tissue culture plates (Evergreen Scientific), were stimulated with TNFα (200 ng/ml=10^4 U/ml)±IFNγ (330 ng/ml=10^4 U/ml). […] Relative cell number was assessed 48 hours later by measuring MTT conversion during the last 4 hours of culture. […]
# integrin αVβ3 = molecular target: T2, integrin αVβ3 (Homo sapiens, UniProt P05106+P06756); experiment: Cell detachment assay, HUVEC on gelatin; format: cell-based; conditions: graded peptide concentrations; 2 hours
# T2 construct: EMD121974 disrupted αVβ3-mediated HUVEC adhesion on gelatin; endogenous in cells; host or cells: HUVEC (primary, passages 3 to 7)
# Method: as §1
# T1 sequence (P08648 42-894 limits assumed): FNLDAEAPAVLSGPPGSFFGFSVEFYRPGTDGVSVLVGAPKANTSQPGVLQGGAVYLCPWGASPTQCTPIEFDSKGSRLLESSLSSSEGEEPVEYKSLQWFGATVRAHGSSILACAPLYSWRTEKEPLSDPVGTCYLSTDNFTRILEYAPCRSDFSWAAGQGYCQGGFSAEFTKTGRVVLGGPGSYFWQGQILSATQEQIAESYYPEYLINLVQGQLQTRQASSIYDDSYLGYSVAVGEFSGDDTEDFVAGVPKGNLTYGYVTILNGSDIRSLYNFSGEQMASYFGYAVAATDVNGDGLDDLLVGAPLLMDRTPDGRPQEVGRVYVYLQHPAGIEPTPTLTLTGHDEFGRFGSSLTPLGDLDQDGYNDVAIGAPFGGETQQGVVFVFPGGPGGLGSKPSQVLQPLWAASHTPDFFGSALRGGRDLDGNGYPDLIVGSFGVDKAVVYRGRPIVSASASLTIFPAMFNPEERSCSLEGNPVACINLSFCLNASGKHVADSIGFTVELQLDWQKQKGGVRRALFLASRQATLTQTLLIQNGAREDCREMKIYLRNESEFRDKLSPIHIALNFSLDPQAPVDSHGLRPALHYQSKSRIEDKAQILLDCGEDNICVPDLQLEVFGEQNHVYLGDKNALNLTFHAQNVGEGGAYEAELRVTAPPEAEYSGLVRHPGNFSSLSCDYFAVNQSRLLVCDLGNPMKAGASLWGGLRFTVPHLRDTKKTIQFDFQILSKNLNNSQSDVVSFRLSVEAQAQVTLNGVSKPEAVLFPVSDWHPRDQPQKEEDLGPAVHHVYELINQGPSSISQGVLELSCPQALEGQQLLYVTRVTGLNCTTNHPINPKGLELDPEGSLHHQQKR
# T1 sequence (P08648 895-1049 partner limits assumed): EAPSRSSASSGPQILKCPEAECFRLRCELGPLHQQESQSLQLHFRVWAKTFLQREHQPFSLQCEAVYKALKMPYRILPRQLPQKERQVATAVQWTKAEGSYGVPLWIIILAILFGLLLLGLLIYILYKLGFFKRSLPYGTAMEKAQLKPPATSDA
# T1 sequence (P05556 21-798): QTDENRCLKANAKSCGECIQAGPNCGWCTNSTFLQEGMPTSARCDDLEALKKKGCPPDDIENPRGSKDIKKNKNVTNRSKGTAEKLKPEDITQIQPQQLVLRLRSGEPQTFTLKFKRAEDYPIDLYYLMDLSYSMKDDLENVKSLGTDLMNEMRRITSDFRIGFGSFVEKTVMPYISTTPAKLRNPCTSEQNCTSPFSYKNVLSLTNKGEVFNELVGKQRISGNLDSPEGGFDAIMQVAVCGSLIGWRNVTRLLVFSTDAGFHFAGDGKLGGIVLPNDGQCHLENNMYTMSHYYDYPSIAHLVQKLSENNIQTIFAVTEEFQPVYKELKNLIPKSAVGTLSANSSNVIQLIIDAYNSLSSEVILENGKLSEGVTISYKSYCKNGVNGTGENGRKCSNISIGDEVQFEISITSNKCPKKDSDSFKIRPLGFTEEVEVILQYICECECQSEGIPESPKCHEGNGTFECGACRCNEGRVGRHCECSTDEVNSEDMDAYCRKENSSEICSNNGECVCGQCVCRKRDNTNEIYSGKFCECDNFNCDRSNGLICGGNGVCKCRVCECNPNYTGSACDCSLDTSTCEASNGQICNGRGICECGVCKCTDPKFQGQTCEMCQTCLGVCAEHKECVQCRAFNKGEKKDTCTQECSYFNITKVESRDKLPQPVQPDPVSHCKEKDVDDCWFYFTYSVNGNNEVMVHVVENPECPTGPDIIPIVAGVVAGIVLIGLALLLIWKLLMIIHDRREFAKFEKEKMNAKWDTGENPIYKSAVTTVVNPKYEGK
# T2 sequence (P06756 31-889 limits assumed): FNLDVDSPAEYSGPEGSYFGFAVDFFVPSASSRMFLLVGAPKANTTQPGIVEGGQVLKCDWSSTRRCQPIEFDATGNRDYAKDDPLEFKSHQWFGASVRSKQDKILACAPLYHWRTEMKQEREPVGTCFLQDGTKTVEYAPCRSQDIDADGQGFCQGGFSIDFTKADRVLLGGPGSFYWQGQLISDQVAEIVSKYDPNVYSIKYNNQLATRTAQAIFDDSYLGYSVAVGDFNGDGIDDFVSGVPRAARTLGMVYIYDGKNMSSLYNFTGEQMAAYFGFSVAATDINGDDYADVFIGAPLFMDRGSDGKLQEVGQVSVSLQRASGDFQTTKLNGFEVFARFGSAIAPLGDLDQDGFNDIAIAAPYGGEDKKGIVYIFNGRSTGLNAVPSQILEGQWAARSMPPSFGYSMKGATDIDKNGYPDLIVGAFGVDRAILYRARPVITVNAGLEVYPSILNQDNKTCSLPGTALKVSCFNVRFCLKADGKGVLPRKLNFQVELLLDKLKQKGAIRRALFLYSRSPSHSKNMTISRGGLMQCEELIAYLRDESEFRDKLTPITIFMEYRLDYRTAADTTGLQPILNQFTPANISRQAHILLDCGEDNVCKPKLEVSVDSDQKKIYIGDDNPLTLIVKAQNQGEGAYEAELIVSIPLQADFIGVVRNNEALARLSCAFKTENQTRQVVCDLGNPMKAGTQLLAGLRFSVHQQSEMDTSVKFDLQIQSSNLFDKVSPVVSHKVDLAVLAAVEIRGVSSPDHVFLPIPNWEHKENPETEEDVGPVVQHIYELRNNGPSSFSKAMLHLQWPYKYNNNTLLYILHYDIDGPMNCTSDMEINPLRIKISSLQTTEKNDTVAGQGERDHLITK
# T2 sequence (P06756 891-1048 partner limits assumed): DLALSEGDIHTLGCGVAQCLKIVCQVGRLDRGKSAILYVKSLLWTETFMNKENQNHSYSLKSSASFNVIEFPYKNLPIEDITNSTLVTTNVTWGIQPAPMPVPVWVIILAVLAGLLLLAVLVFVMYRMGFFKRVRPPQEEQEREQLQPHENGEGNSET
# T2 sequence (P05106 27-788): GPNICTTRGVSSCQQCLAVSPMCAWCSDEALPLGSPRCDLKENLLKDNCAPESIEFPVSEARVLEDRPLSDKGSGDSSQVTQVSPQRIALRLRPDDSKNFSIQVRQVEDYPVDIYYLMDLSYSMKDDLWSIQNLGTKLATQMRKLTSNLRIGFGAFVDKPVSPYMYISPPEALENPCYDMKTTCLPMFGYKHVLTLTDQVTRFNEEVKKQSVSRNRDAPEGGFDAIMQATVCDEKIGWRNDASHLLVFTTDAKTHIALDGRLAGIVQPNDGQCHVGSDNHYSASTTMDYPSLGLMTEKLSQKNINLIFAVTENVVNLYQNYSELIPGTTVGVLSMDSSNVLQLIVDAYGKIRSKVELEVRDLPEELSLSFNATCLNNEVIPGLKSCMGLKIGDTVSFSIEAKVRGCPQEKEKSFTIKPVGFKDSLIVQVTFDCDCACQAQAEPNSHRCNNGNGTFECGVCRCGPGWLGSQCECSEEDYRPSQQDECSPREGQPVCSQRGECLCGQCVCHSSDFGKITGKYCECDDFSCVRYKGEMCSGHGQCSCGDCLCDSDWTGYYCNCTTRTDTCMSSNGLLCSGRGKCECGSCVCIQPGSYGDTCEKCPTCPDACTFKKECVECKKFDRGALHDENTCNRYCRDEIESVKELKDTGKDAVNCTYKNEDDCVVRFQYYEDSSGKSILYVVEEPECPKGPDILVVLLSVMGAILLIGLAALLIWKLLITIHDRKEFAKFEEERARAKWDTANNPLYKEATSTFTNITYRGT
smiles,measurement,setting,value
"CC(C)[C@H]1C(=O)N[C@@H](CCCN=C(N)N)C(=O)NCC(=O)N[C@@H](CC(=O)O)C(=O)N[C@H](Cc2ccccc2)C(=O)N1C [EMD121974, cyclo-(Arg-Gly-Asp-DPhe-NMeVal)]","apoptosis and detachment of HUVEC on fibronectin, combined exposure to TNF/IFNγ and peptide",HUVEC [1],increased apoptosis and detachment
same,tumor growth,[2],no impact on tumor growth
same,sensitivity of BN175 tumor cells to αVβ3 selective inhibitors,BN175 tumor cells,low sensitivity
same,α5β1 component of the α5β1/αVβ3-mediated adhesion to fibronectin,α5β1,does not affect
same,"cell viability / survival of fibronectin-adherent HUVEC, agent alone","HUVEC [3]; fibronectin-adherent, TNF 200 ng/ml ± IFNγ 330 ng/ml, EMD peptide 300 μM",neither TNF/IFNγ nor EMD121974 alone affected survival
same,"survival of HUVEC on fibronectin, combined exposure to TNF/IFNγ and peptide","HUVEC [3]; peptide 300 μM, TNF 200 ng/ml, IFNγ 330 ng/ml",reduced survival
same,αVβ3-mediated HUVEC adhesion on gelatin,integrin αVβ3,disrupted
